These are literature values, as cited in PubChem BioAssay AID1259409 (Chemical Carcinogenesis Research Information System (CCRIS), 2018).

The data set has as its system rodent chemically induced tumor inhibition, incidence and multiplicity. Briefly: CCRIS tumor inhibitor studies. To be noted: Promoter: NONE USED; for outcome: Dose [Inhibitor]: 3 MG/KG BW IN 0.1 ML CORN OIL 3/WK FOR DURATION OF EXPERIMENT BEGINNING 15 D POST CARCINOGEN DOSE, Target Tissue: Type of Lesion: MAMMARY GLAND: ADENOCARCINOMA, FIBROADENOMA, Dose [Carcinogen]: 5 OR 10 MG IN 0.5 ML CORN OIL ONCE.

Turning to `CC(C)C[C@H]1C(=O)N2CCC[C@H]2[C@]2(O)O[C@](NC(=O)[C@@H]3C=C4c5cccc6[nH]c(Br)c(c56)C[C@H]4N(C)C3)(C(C)C)C(=O)N12`, the “tumour outcome (control, treated, inhibition, significance)” value by setting is: (Carcinogen: DIMETHYLBENZ[A]ANTHRACENE, 57-97-6, Dose [Inhibitor]: 3 MG/KG BW (0.1 ML) IN CORN OIL 5/WK OR 6/WK FOR 2 WK (11 INJECTIONS) BEGINNING 15 D PRIOR TO CARCINOGEN DOSE AT 35 D OF, Route [Inhibitor]: SUBCUTANEOUS, Species: RAT, Strain/Sex: SPRAGUE-DAWLEY/FEMALE, Target Tissue: Type of Lesion: MAMMARY GLAND: TUMOR, Dose [Carcinogen]: 5 MG/RAT IN CORN OIL ONCE) 13/22 (59%), 11/24 (46%), 22%, not significant; (Carcinogen: DIMETHYLBENZ[A]ANTHRACENE, 57-97-6, Dose [Inhibitor]: 400 UG/100 G BW TOGETHER WITH 25 UG TAMOXIFEN/100 G BW 1/D FOR 20 WK BEGINNING 3 D POST CARCINOGEN DOSE (STUDY DURATION:, Route [Inhibitor]: SUBCUTANEOUS, Species: RAT, Strain/Sex: SPRAGUE-DAWLEY/FEMALE, Target Tissue: Type of Lesion: MAMMARY GLAND: CARCINOMA, Dose [Carcinogen]: 5 MG ONCE AT 53 D OF AGE) 85%, 21%, 75%, p<0.001 at 20 wk; (Carcinogen: DIMETHYLBENZ[A]ANTHRACENE, 57-97-6, Dose [Inhibitor]: 400 UG/100 G BW TOGETHER WITH 25 UG TAMOXIFEN/100 G BW 1/D FOR 20 WK BEGINNING 3 D POST CARCINOGEN DOSE (STUDY DURATION:, Route [Inhibitor]: SUBCUTANEOUS, Species: RAT, Strain/Sex: SPRAGUE-DAWLEY/FEMALE, Target Tissue: Type of Lesion: MAMMARY GLAND: CARCINOMA, Dose [Carcinogen]: 10 MG ONCE AT 53 D OF AGE) 90%, 10%, 89%, p<0.001 at 12 wks; (Carcinogen: DIMETHYLBENZ[A]ANTHRACENE, 57-97-6, Dose [Inhibitor]: 400 UG/100 G BW TOGETHER WITH 25 UG TAMOXIFEN/100 G BW 1/D FOR 26 WK BEGINNING 3 D POST CARCINOGEN DOSE (STUDY DURATION:, Route [Inhibitor]: SUBCUTANEOUS, Species: RAT, Strain/Sex: SPRAGUE-DAWLEY/FEMALE, Target Tissue: Type of Lesion: MAMMARY GLAND: CARCINOMA, Dose [Carcinogen]: 20 MG ONCE AT 53 D OF AGE) 100%, 12%, 88%, p<0.001 at 11 wks; (Carcinogen: DIMETHYLBENZ[A]ANTHRACENE, 57-97-6, Dose [Inhibitor]: 400 UG/100 G BW TOGETHER WITH 25 UG TAMOXIFEN/100 G BW 1/D PLUS 68 MG RETINYL ACETATE/KG OF DIET, BEGINNING 3 D POST CAR, Route [Inhibitor]: SUBCUTANEOUS, Species: RAT, Strain/Sex: SPRAGUE-DAWLEY/FEMALE, Target Tissue: Type of Lesion: MAMMARY GLAND: CARCINOMA, Dose [Carcinogen]: 20 MG ONCE AT 53 D OF AGE) 100%, 3%, 97%, p<0.001 at 11 wk; (Carcinogen: DIMETHYLBENZ[A]ANTHRACENE, 57-97-6, Dose [Inhibitor]: 400 UG/100 G BW TOGETHER WITH 25 UG TAMOXIFEN/100 G BW 1/D PLUS 204 MG RETINYL ACETATE/KG OF DIET, BEGINNING 3 D POST CA, Route [Inhibitor]: SUBCUTANEOUS, Species: RAT, Strain/Sex: SPRAGUE-DAWLEY/FEMALE, Target Tissue: Type of Lesion: MAMMARY GLAND: CARCINOMA, Dose [Carcinogen]: 10 MG ONCE AT 53 D OF AGE) 90%, 5%, 94%, p<0.001 at 12 wk. The “tumour outcome (control, treated, inhibition, significance)” value (Carcinogen: DIMETHYLBENZ[A]ANTHRACENE, 57-97-6, Dose [Inhibitor]: 400 UG/100 G BW TOGETHER WITH 25 UG TAMOXIFEN/100 G BW 1/D PLUS 328 MG RETINYL ACETATE/KG DIET BEGINNING 3 D POST CARCIN, Route [Inhibitor]: SUBCUTANEOUS, Species: RAT, Strain/Sex: SPRAGUE-DAWLEY/FEMALE, Target Tissue: Type of Lesion: MAMMARY GLAND: CARCINOMA, Dose [Carcinogen]: 5 MG ONCE AT 53 D OF AGE) is given as 85%, 5%, 94%, p<0.001 at 20 wk; the “tumour outcome (control, treated, inhibition, significance)” value (Carcinogen: ENOVID (NORETHYNODREL WITH MESTRANOL), 8015-30-3, Dose [Inhibitor]: 0.1 MG 1/D FOR 21 MO BEGINNING CONCURRENTLY WITH CARCINOGEN DOSE (STUDY DURATION: 21 MO), Route [Inhibitor]: SUBCUTANEOUS, Species: MOUSE, Strain/Sex: C3H/FEMALE, Target Tissue: Type of Lesion: MAMMARY GLAND: CARCINOMA, Dose [Carcinogen]: 0.1 MG 2/WK FOR 21 MO) was 30/100 (30%), 10/100 (10%), 67%, p<0.001; the “tumour outcome (control, treated, inhibition, significance)” value (Carcinogen: ESTRONE, 53-16-7, PROGESTERONE, 57-83-0, Carcinogen: ESTRONE, 53-16-7, PROGESTERONE, 57-83-0, Dose [Inhibitor]: 100 UG 1/D FOR 13 WK BEGINNING CONCURRENTLY WITH CARCINOGEN DOSE (STUDY DURATION: NOT STATED, DATA INDICATES 13 WK), Route [Inhibitor]: SUBCUTANEOUS, Species: MOUSE, Strain/Sex: STRAIN-GR/FEMALE, Target Tissue: Type of Lesion: MAMMARY GLAND: PAPILLARY CARCINOMA, Dose [Carcinogen]: 0.5 MG/L FOR 13 WK IN DRINKING WATER BEGINNING AT 15 WK OF AGE, THEN 30 MG PELLET IMPLANT 1/MO BEGINNING AT 15 WK OF AGE) is recorded as 58/119 (49%), 34/119 (29%), 41%, p<0.005; the “tumour outcome (control, treated, inhibition, significance)” value (Carcinogen: ISONIAZID, 54-85-3, Dose [Inhibitor]: 5000 PPM IN DIET STARTING 1 WK PRIOR TO ADMINISTRATION OF CARCINOGEN UNTIL END OF EXPERIMENT (STUDY DURATION: APPROXIMAT, Route [Inhibitor]: ORAL, Species: MOUSE, Strain/Sex: SWISS/MALE, FEMALE, Target Tissue: Type of Lesion: LIVER AND LUNG: COMBINED TUMORS, Dose [Carcinogen]: 1.1 MG/D 5 D/WK UNTIL 25 MO OF AGE) was 16/29 (55%), 4/20 (20%), 64%, p<o.o5; the “tumour outcome (control, treated, inhibition, significance)” value (Carcinogen: N-METHYL-N'-NITRO-N-NITROSOGUANIDINE, 70-25-7, Dose [Inhibitor]: 0, 0.25 MG/KG AS A SUSPENSION IN OLIVE OIL 1/2 D BEGINNING POST CARCINOGEN DOSE AND CONTINUING FOR DURATION OF STUDY (ST, Route [Inhibitor]: SUBCUTANEOUS, Species: RAT, Strain/Sex: WISTAR/MALE, Target Tissue: Type of Lesion: STOMACH: ADENOCARCINOMA, Dose [Carcinogen]: 50 UG/ML IN DRINKING WATER FOR 25 WK) is recorded as 12/19 (63%), 12/20 (60%), 5%, not calculated; the “tumour outcome (control, treated, inhibition, significance)” value (Carcinogen: N-METHYL-N'-NITRO-N-NITROSOGUANIDINE, 70-25-7, Dose [Inhibitor]: 0, 0.5 MG/KG AS A SUSPENSION IN OLIVE OIL 1/2 D BEGINNING POST CARCINOGEN DOSE AND CONTINUING FOR DURATION OF STUDY (STU, Route [Inhibitor]: SUBCUTANEOUS, Species: RAT, Strain/Sex: WISTAR/MALE, Target Tissue: Type of Lesion: STOMACH: ADENOCARCINOMA, Dose [Carcinogen]: 50 UG/ML IN DRINKING WATER FOR 25 WK) was 12/19 (63%), 10/20 (50%), 21%, not calculated. The outcome (Carcinogen: DIMETHYLBENZ[A]ANTHRACENE, 57-97-6, MAINTAINED ON 0.5% FA, Route [Inhibitor]: SUBCUTANEOUS, Species: RAT, Strain/Sex: SPRAGUE-DAWLEY/FEMALE) is given as 34%, 0%, 100%, not calculated (low dose carcinogen); 38%, 18%, 53%, not calculat and the outcome (Carcinogen: DIMETHYLBENZ[A]ANTHRACENE, 57-97-6, MAINTAINED ON 20% FAT, Route [Inhibitor]: SUBCUTANEOUS, Species: RAT, Strain/Sex: SPRAGUE-DAWLEY/FEMALE) was 56%, 0%, 100%, not calculated (low dose carcinogen); 58%, 19%, 67%, not calculat.
